Reference: the NIST ThermoML archive (doi:10.1016/j.jct.2014.03.022)
± gives the expanded uncertainty stated by the source.

Experiment: not given
Conditions: 298.15 K, Wilhelmy plate method

surface tension liquid-gas | SMILES
28.35 ± 0.52 mN/m | CCCCCCCCCCO [decan-1-ol]
35.2 ± 0.5 mN/m | CN(C)C=O [dimethylformamide]
27.58 ± 0.57 mN/m | CCCCCCCCCO [nonan-1-ol]
27.47 ± 0.52 mN/m | CCCCCCCCO [octan-1-ol]

Same assay, conditions: 298.15 K; 101.3 kPa; Liquid; Concentric cylinders viscometry

viscosity | SMILES
11.83 ± 0.25 mPa·s | CCCCCCCCCCO [decan-1-ol]
0.8162 ± 0.017 mPa·s | CN(C)C=O [dimethylformamide]
9.715 ± 0.22 mPa·s | CCCCCCCCCO [nonan-1-ol]
7.661 ± 0.16 mPa·s | CCCCCCCCO [octan-1-ol]

Same assay, conditions: 303.15 K, Wilhelmy plate method

surface tension liquid-gas | SMILES
27.29 ± 0.52 mN/m | CCCCCCCCCCO [decan-1-ol]
34.1 ± 0.5 mN/m | CN(C)C=O [dimethylformamide]
26.53 ± 0.57 mN/m | CCCCCCCCCO [nonan-1-ol]
26.42 ± 0.52 mN/m | CCCCCCCCO [octan-1-ol]

Same assay, conditions: 303.15 K; 101.3 kPa; Liquid; Concentric cylinders viscometry

viscosity | SMILES
9.754 ± 0.2 mPa·s | CCCCCCCCCCO [decan-1-ol]
0.7678 ± 0.016 mPa·s | CN(C)C=O [dimethylformamide]
7.927 ± 0.18 mPa·s | CCCCCCCCCO [nonan-1-ol]
6.402 ± 0.13 mPa·s | CCCCCCCCO [octan-1-ol]

Same assay, conditions: 308.15 K, Wilhelmy plate method

surface tension liquid-gas | SMILES
26.23 ± 0.52 mN/m | CCCCCCCCCCO [decan-1-ol]
33 ± 0.5 mN/m | CN(C)C=O [dimethylformamide]
25.49 ± 0.56 mN/m | CCCCCCCCCO [nonan-1-ol]
25.41 ± 0.52 mN/m | CCCCCCCCO [octan-1-ol]

Same assay, conditions: 308.15 K; 101.3 kPa; Liquid; Concentric cylinders viscometry

viscosity | SMILES
8.135 ± 0.17 mPa·s | CCCCCCCCCCO [decan-1-ol]
0.7262 ± 0.016 mPa·s | CN(C)C=O [dimethylformamide]
6.664 ± 0.15 mPa·s | CCCCCCCCCO [nonan-1-ol]
5.425 ± 0.11 mPa·s | CCCCCCCCO [octan-1-ol]

Same assay, conditions: 313.15 K, Wilhelmy plate method

surface tension liquid-gas | SMILES
25.17 ± 0.52 mN/m | CCCCCCCCCCO [decan-1-ol]
32 ± 0.5 mN/m | CN(C)C=O [dimethylformamide]
24.44 ± 0.56 mN/m | CCCCCCCCCO [nonan-1-ol]
24.38 ± 0.52 mN/m | CCCCCCCCO [octan-1-ol]

Same assay, conditions: 313.15 K; 101.3 kPa; Liquid; Concentric cylinders viscometry

viscosity | SMILES
6.842 ± 0.14 mPa·s | CCCCCCCCCCO [decan-1-ol]
0.678 ± 0.015 mPa·s | CN(C)C=O [dimethylformamide]
5.645 ± 0.13 mPa·s | CCCCCCCCCO [nonan-1-ol]
4.628 ± 0.097 mPa·s | CCCCCCCCO [octan-1-ol]

Experiment: refractive index (Na D-line) (dimensionless)
Conditions: 293.15 K; 101.33 kPa; Liquid; Standard Abbe refractometry

refractive index | SMILES
1.437 ± 0.001 | CCCCCCCCCCO [decan-1-ol]
1.429 ± 0.001 | CN(C)C=O [dimethylformamide]
1.433 ± 0.001 | CCCCCCCCCO [nonan-1-ol]
1.429 ± 0.001 | CCCCCCCCO [octan-1-ol]

Experiment: xn = mol fraction of the nth substance listed
Conditions: 298.15 K, Wilhelmy plate method, x1 = 1

surface tension liquid-gas | SMILES
35.2 ± 0.5 mN/m | CN(C)C=O [dimethylformamide] + CCCCCCCCCCO
35.2 ± 0.5 mN/m | CN(C)C=O [dimethylformamide] + CCCCCCCCCO
35.2 ± 0.5 mN/m | CN(C)C=O [dimethylformamide] + CCCCCCCCO

Same assay, conditions: 298.15 K; 101.3 kPa; Liquid; Concentric cylinders viscometry; x1 = 1

viscosity | SMILES
0.8162 ± 0.017 mPa·s | CN(C)C=O [dimethylformamide] + CCCCCCCCCCO
0.8162 ± 0.017 mPa·s | CN(C)C=O [dimethylformamide] + CCCCCCCCCO
0.8162 ± 0.017 mPa·s | CN(C)C=O [dimethylformamide] + CCCCCCCCO

Same assay, conditions: 303.15 K, Wilhelmy plate method, x1 = 1

surface tension liquid-gas | SMILES
34.1 ± 0.5 mN/m | CN(C)C=O [dimethylformamide] + CCCCCCCCCCO
34.1 ± 0.5 mN/m | CN(C)C=O [dimethylformamide] + CCCCCCCCCO
34.1 ± 0.5 mN/m | CN(C)C=O [dimethylformamide] + CCCCCCCCO

Same assay, conditions: 303.15 K; 101.3 kPa; Liquid; Concentric cylinders viscometry; x1 = 1

viscosity | SMILES
0.7678 ± 0.016 mPa·s | CN(C)C=O [dimethylformamide] + CCCCCCCCCCO
0.7678 ± 0.016 mPa·s | CN(C)C=O [dimethylformamide] + CCCCCCCCCO
0.7678 ± 0.016 mPa·s | CN(C)C=O [dimethylformamide] + CCCCCCCCO

Same assay, conditions: 308.15 K, Wilhelmy plate method, x1 = 1

surface tension liquid-gas | SMILES
33 ± 0.5 mN/m | CN(C)C=O [dimethylformamide] + CCCCCCCCCCO
33 ± 0.5 mN/m | CN(C)C=O [dimethylformamide] + CCCCCCCCCO
33 ± 0.5 mN/m | CN(C)C=O [dimethylformamide] + CCCCCCCCO

Same assay, conditions: 308.15 K; 101.3 kPa; Liquid; Concentric cylinders viscometry; x1 = 1

viscosity | SMILES
0.7262 ± 0.016 mPa·s | CN(C)C=O [dimethylformamide] + CCCCCCCCCCO
0.7262 ± 0.016 mPa·s | CN(C)C=O [dimethylformamide] + CCCCCCCCCO
0.7262 ± 0.016 mPa·s | CN(C)C=O [dimethylformamide] + CCCCCCCCO

Same assay, conditions: 313.15 K, Wilhelmy plate method, x1 = 1

surface tension liquid-gas | SMILES
32 ± 0.5 mN/m | CN(C)C=O [dimethylformamide] + CCCCCCCCCCO
32 ± 0.5 mN/m | CN(C)C=O [dimethylformamide] + CCCCCCCCCO
32 ± 0.5 mN/m | CN(C)C=O [dimethylformamide] + CCCCCCCCO

Same assay, conditions: 313.15 K; 101.3 kPa; Liquid; Concentric cylinders viscometry; x1 = 1

viscosity | SMILES
0.678 ± 0.015 mPa·s | CN(C)C=O [dimethylformamide] + CCCCCCCCCCO
0.678 ± 0.015 mPa·s | CN(C)C=O [dimethylformamide] + CCCCCCCCCO
0.678 ± 0.015 mPa·s | CN(C)C=O [dimethylformamide] + CCCCCCCCO
